# According to patent US6358885B1, “Substituted phenylheterocyclic herbicides” (Mississippi State University, priority 1992, dated 2002):
# Columns and labels:
# Test in all cases: Test G preemergence/postemergence greenhouse plant response rating 0 to 100
# johnsongrass = assay type: in vivo, Sorghum halepense; conditions: 0 to 100 scale
# In short: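 Scoring: visual injury at 13 to 21 days post-application, compared with untreated controls. Planting: one species per pot in greenhouse medium. Dosing: compound in non-phytotoxic solvent, within one day of sowing for preemergence or at 2–4 leaves for postemergence.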
# dallisgrass = assay type: in vivo, Paspalum dilatatum; conditions: 0 to 100 scale
# In short: (§1)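 Greenhouse pots, one species each; non-phytotoxic solvent vehicle. Read-out: visual injury vs untreated, 13–21 DAT. Dash denotes no result.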
# pitted morningglory = assay type: in vivo, Ipomoea lacunosa; conditions: 0 to 100 scale
# In short: as §1
# smooth crabgrass = assay type: in vivo, Digitaria ischaemum; conditions: 0 to 100 scale
# In short: as §1
# large crabgrass = assay type: in vivo, Digitaria sanguinalis; conditions: 0 to 100 scale
# In short: as §1
# alfalfa = assay type: in vivo, Medicago ativa; conditions: 0 to 100 scale
# In short: as §1
# guineagrass = assay type: in vivo, Panicum maximum; conditions: 0 to 100 scale
# In short: as §1
# sandbur = assay type: in vivo, Cenchrus echinatus; conditions: 0 to 100 scale
# In short: as §1
# annual bluegrass = assay type: in vivo, Poa annua; conditions: 0 to 100 scale
# In short: as §1
# peanut = assay type: in vivo, Arachis hypoagaea; conditions: 0 to 100 scale
# In short: as §1
# yellow nutsedge = assay type: in vivo, Cyperus esculentus; conditions: Rate 125 g/ha, 0 to 100 scale
# In short: as §1
# purple nutsedge = assay type: in vivo, Cyperus rotundus; conditions: Rate 125 g/ha, 0 to 100 scale
# In short: as §1
# common purslane = assay type: in vivo, Portulaca oleracea; conditions: 0 to 100 scale
# In short: as §1
# itchgrass = assay type: in vivo, Rottboellia exaltata; conditions: 0 to 100 scale
# In short: as §1
# goosegrass = assay type: in vivo, Eleusine indica; conditions: 0 to 100 scale
# In short: as §1
# bermudagrass = assay type: in vivo, Cynodon dactylon; conditions: 0 to 100 scale
# In short: as §1
# common ragweed = assay type: in vivo, Ambrosia elatior; conditions: 0 to 100 scale
# In short: as §1
structure (smiles),measurement,setting,value
C=CCN1C(=O)COc2cc(F)c(-c3nn4c(c3Cl)CCCC4)cc21 [Compound 33],"Plant response rating, Johnsongrass","johnsongrass; POSTEMERGENCE, Rate 125 g/ha",0
same,"Plant response rating, Johnsongrass","johnsongrass; POSTEMERGENCE, Rate 250 g/ha",0
same,"Plant response rating, Johnsongrass","johnsongrass; PREEMERGENCE, Rate 125 g/ha",0
same,"Plant response rating, Johnsongrass","johnsongrass; PREEMERGENCE, Rate 250 g/ha",0
same,"Plant response rating, Dallisgrass","dallisgrass; POSTEMERGENCE, Rate 125 g/ha",0
same,"Plant response rating, Dallisgrass","dallisgrass; POSTEMERGENCE, Rate 250 g/ha",0
same,"Plant response rating, Dallisgrass","dallisgrass; PREEMERGENCE, Rate 125 g/ha",0
same,"Plant response rating, Dallisgrass","dallisgrass; PREEMERGENCE, Rate 250 g/ha",0
same,"Plant response rating, Pit Morninglory","pitted morningglory; POSTEMERGENCE, Rate 125 g/ha",30
same,"Plant response rating, Pit Morninglory","pitted morningglory; POSTEMERGENCE, Rate 250 g/ha",100
same,"Plant response rating, Pit Morninglory","pitted morningglory; PREEMERGENCE, Rate 125 g/ha",0
same,"Plant response rating, Pit Morninglory","pitted morningglory; PREEMERGENCE, Rate 250 g/ha",0
same,"Plant response rating, Smooth Crabgras","smooth crabgrass; POSTEMERGENCE, Rate 125 g/ha",0
same,"Plant response rating, Smooth Crabgras","smooth crabgrass; POSTEMERGENCE, Rate 250 g/ha",0
same,"Plant response rating, Smooth Crabgras","smooth crabgrass; PREEMERGENCE, Rate 125 g/ha",0
same,"Plant response rating, Smooth Crabgras","smooth crabgrass; PREEMERGENCE, Rate 250 g/ha",0
same,"Plant response rating, Large Crabgrass","large crabgrass; POSTEMERGENCE, Rate 125 g/ha",0
same,"Plant response rating, Large Crabgrass","large crabgrass; POSTEMERGENCE, Rate 250 g/ha",0
same,"Plant response rating, Large Crabgrass","large crabgrass; PREEMERGENCE, Rate 125 g/ha",0
same,"Plant response rating, Large Crabgrass","large crabgrass; PREEMERGENCE, Rate 250 g/ha",0
same,"Plant response rating, Alfalfa Var.","alfalfa; POSTEMERGENCE, Rate 125 g/ha",0
same,"Plant response rating, Alfalfa Var.","alfalfa; POSTEMERGENCE, Rate 250 g/ha",0
same,"Plant response rating, Alfalfa Var.","alfalfa; PREEMERGENCE, Rate 125 g/ha",0
same,"Plant response rating, Alfalfa Var.","alfalfa; PREEMERGENCE, Rate 250 g/ha",0
same,"Plant response rating, Guineagrass","guineagrass; POSTEMERGENCE, Rate 125 g/ha",0
same,"Plant response rating, Guineagrass","guineagrass; POSTEMERGENCE, Rate 250 g/ha",0
same,"Plant response rating, Guineagrass","guineagrass; PREEMERGENCE, Rate 125 g/ha",0
same,"Plant response rating, Guineagrass","guineagrass; PREEMERGENCE, Rate 250 g/ha",0
same,"Plant response rating, S. Sandbur","sandbur; POSTEMERGENCE, Rate 125 g/ha",0
same,"Plant response rating, S. Sandbur","sandbur; POSTEMERGENCE, Rate 250 g/ha",0
same,"Plant response rating, S. Sandbur","sandbur; PREEMERGENCE, Rate 125 g/ha",0
same,"Plant response rating, S. Sandbur","sandbur; PREEMERGENCE, Rate 250 g/ha",0
same,"Plant response rating, Ann Bluegrass","annual bluegrass; POSTEMERGENCE, Rate 125 g/ha",0
same,"Plant response rating, Ann Bluegrass","annual bluegrass; POSTEMERGENCE, Rate 250 g/ha",0
same,"Plant response rating, Ann Bluegrass","annual bluegrass; PREEMERGENCE, Rate 125 g/ha",0
same,"Plant response rating, Ann Bluegrass","annual bluegrass; PREEMERGENCE, Rate 250 g/ha",0
same,"Plant response rating, Peanuts","peanut; POSTEMERGENCE, Rate 125 g/ha",0
same,"Plant response rating, Peanuts","peanut; POSTEMERGENCE, Rate 250 g/ha",0
same,"Plant response rating, Peanuts","peanut; PREEMERGENCE, Rate 125 g/ha",0
same,"Plant response rating, Peanuts","peanut; PREEMERGENCE, Rate 250 g/ha",0
same,"Plant response rating, Yellow Nutsedge",yellow nutsedge; POSTEMERGENCE,0
same,"Plant response rating, Yellow Nutsedge",yellow nutsedge; PREEMERGENCE,0
same,"Plant response rating, Purple Nutsedge",purple nutsedge; POSTEMERGENCE,10
same,"Plant response rating, Purple Nutsedge",purple nutsedge; PREEMERGENCE,0
same,"Plant response rating, Cmn Purslane","common purslane; POSTEMERGENCE, Rate 125 g/ha",100
same,"Plant response rating, Cmn Purslane","common purslane; POSTEMERGENCE, Rate 250 g/ha",80
same,"Plant response rating, Cmn Purslane","common purslane; PREEMERGENCE, Rate 125 g/ha",0
same,"Plant response rating, Cmn Purslane","common purslane; PREEMERGENCE, Rate 250 g/ha",40
same,"Plant response rating, Itchgrass","itchgrass; POSTEMERGENCE, Rate 125 g/ha",0
same,"Plant response rating, Itchgrass","itchgrass; POSTEMERGENCE, Rate 250 g/ha",0
same,"Plant response rating, Itchgrass","itchgrass; PREEMERGENCE, Rate 125 g/ha",0
same,"Plant response rating, Itchgrass","itchgrass; PREEMERGENCE, Rate 250 g/ha",0
same,"Plant response rating, Goosegrass","goosegrass; POSTEMERGENCE, Rate 125 g/ha",0
same,"Plant response rating, Goosegrass","goosegrass; POSTEMERGENCE, Rate 250 g/ha",0
same,"Plant response rating, Goosegrass","goosegrass; PREEMERGENCE, Rate 125 g/ha",0
same,"Plant response rating, Goosegrass","goosegrass; PREEMERGENCE, Rate 250 g/ha",0
same,"Plant response rating, Bermudagrass","bermudagrass; POSTEMERGENCE, Rate 125 g/ha",0
same,"Plant response rating, Bermudagrass","bermudagrass; POSTEMERGENCE, Rate 250 g/ha",0
same,"Plant response rating, Bermudagrass","bermudagrass; PREEMERGENCE, Rate 125 g/ha",0
same,"Plant response rating, Bermudagrass","bermudagrass; PREEMERGENCE, Rate 250 g/ha",0
same,"Plant response rating, Cmn Ragweed","common ragweed; POSTEMERGENCE, Rate 125 g/ha",80
same,"Plant response rating, Cmn Ragweed","common ragweed; POSTEMERGENCE, Rate 250 g/ha",50
same,"Plant response rating, Cmn Ragweed","common ragweed; PREEMERGENCE, Rate 125 g/ha",0
same,"Plant response rating, Cmn Ragweed","common ragweed; PREEMERGENCE, Rate 250 g/ha",0
